{"source": "patent US20080070892A1", "about": "“TREATING PAIN, DIABETES, AND DISORDERS OF LIPID METABOLISM” (priority 2006, published 2008)", "data": [{"target": "T1, human CaV3.2 (Homo sapiens, UniProt O95180)", "T1 construct": "expressed in transfected cells", "T1 sequence (O95180 whole entry)": "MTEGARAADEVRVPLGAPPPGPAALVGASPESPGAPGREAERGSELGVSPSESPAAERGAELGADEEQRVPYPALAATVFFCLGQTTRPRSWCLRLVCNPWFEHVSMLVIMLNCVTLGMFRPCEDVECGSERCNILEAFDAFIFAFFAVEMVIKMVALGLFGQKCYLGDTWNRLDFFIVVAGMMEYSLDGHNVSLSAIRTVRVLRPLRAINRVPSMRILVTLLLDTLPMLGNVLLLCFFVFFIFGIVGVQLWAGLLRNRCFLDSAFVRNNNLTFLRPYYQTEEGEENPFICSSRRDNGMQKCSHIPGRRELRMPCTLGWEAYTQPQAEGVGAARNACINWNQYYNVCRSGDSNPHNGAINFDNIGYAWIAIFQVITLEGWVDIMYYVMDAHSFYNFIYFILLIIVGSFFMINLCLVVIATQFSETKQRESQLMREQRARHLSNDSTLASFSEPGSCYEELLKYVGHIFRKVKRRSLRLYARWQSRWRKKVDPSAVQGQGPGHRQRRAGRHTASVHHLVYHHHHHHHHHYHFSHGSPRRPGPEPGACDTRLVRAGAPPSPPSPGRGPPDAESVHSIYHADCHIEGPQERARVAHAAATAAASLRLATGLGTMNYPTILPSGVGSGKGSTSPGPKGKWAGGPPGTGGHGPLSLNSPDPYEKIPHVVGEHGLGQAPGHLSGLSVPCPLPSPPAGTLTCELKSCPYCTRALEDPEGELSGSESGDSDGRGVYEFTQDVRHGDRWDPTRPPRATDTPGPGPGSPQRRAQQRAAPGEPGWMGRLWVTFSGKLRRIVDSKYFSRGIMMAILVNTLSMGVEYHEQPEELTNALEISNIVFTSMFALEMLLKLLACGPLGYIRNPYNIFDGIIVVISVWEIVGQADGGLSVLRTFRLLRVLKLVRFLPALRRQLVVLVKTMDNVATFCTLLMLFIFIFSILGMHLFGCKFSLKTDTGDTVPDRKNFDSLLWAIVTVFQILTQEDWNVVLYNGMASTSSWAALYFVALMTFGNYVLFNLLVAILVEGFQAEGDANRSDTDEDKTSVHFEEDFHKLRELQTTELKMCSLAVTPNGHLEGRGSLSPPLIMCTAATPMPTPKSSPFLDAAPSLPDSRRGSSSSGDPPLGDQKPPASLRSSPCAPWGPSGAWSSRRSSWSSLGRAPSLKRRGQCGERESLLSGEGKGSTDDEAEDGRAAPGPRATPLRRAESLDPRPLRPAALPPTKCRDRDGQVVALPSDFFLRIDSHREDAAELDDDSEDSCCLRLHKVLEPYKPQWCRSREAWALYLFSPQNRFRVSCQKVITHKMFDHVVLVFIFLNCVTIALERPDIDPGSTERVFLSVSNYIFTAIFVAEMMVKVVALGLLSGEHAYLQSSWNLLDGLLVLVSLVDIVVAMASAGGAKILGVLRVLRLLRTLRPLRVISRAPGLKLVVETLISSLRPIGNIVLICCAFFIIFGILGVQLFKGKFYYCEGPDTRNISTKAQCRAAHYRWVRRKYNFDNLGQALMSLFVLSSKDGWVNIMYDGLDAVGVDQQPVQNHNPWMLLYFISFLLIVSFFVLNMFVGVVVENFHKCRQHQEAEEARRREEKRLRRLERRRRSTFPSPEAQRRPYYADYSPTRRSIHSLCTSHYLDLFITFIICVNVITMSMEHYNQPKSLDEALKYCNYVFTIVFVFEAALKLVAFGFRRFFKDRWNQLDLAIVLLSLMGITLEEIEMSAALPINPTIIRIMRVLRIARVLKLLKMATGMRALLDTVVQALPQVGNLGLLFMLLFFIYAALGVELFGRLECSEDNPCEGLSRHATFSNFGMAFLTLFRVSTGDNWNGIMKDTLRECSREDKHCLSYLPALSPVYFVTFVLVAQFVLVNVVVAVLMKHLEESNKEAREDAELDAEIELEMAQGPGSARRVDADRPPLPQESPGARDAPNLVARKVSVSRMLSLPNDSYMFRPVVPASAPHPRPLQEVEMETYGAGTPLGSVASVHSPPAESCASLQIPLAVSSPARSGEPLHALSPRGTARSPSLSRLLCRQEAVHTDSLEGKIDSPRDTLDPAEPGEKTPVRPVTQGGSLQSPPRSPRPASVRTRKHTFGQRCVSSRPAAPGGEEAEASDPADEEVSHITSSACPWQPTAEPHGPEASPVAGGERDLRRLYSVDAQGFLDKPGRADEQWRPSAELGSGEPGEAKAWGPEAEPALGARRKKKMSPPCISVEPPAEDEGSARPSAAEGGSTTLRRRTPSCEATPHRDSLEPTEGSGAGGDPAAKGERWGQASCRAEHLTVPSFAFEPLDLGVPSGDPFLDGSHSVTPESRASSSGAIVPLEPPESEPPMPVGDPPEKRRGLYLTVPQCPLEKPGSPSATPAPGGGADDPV", "assay": "IonWorks screen for hCaV3.2 (Cav3.2 Ionworks assay)", "format": "cell-based", "conditions": "read-out: IW hCav3 2 IC50", "description": "Functional evaluation of voltage-gated ion channels was used to determine potency and/or single concentration efficacy of proprietary compounds. Two different methodologies were used to measure ion currents: the IonWorks HT (Molecular Devices, Sunnyvale, Calif.) a moderate throughput voltage clamp screening platform that utilizes 96-well compound plates and conventional whole cell patch clamp for lower throughput, higher fidelity determinations.\nHEK cells were transiently transfected and then selected for stable heterologous expression of different channel proteins of interest. Calcium channel cell lines expressed a resting potassium current, human Kir2.1, and the pore forming α-subunit of voltage-gated calcium channels. In the case of CaV2.1 cells the auxiliary subunit, β2a, was also expressed. Calcium channel lines that were used to generate the data in this document expressed either human CaV3.2, rat CaV3.2 or human CaV2.1. The human heart sodium channel, hNaV1.5, was stably expressed in CHO cells. These cells were licensed from the University of Pennsylvania.\nCell lines were grown at 37° C. in humidified incubators, equilibrated with 95% air/5%0 CO2 CHO cells were grown in Ham's F-12 medium. HEK cells were grown in DMEM. All media were supplemented with 10% heat-inactivated fetal bovine serum, penicillin, streptomycin and appropriate selection antibiotics (zeocin, geneticin and/or hygromycin). Cells were passaged when 80% confluent or less.\nIonWorks Screen for hCaV3.2\nThe extracellular buffer for experiments using this instrument contained the following (mM) (NaCl 125, HEPES 10, KCl 5.4, CaCl2 1.8, MgCl2 1.8, 0.2 BaCl2 pH 7.35). The IonWorks uses amphotericin to gain electrical access to the cell interior. The internal solution contained (mM concentrations): 130 K-gluconate, 20 KCl, 5 HEPES-KOH (pH 7.25), 2 CaCl2, 1 MgCl2. Amphotericin added at 5 mg in 65 ml when present (in 650 μl DMSO). All internal and external solutions for this experiment contain 1% DMSO. Cells were acutely trypsinized from a T-75 flask and resuspended in extracellular buffer at a density of 2×10^5 cells/ml.\nExperiments were performed at room temperature. Transmembrane potential was held at −100 mV for 5 seconds prior to running the voltage protocol. During this time leak currents were measured during a step to −110 mV (200 milliseconds). T-type calcium currents were activated with a 250 millisecond step to −20 mV. This depolarization step was repeated for a total of 10 pulses with an interpulse interval of 1 second. Data were excluded if the following acceptance criteria were not met: total resistance for the pre-compound scan >65 MΩ, pre-compound current >250 pA, post compound total resistance >50 MΩ.\nT-type currents were measured as the peak inward current minus the current at the end of the 250 msec step to −20 mV. After the recoding configuration was established there was a pre-compound measurement of current amplitude. Compound was added as a 3× solution containing 1% DMSO. After incubation with compound for 10 minutes currents were measured again. The current amplitude after compound addition was divided by the pre-compound current for pulse 10 to determine the fraction of current remaining after compound addition. For each compound, 8-point concentration-effect relationships were measured with ½ log serial dilutions.", "units": {"IC50": "nM"}, "values": [{"smiles": "COC(=O)[C@H](CC(C)C)NC(=O)N1CCC2(CC1)CN(CC(C)C)C2c1ccc(Cl)cc1", "note": "(stereo partly shown)", "IC50": 23}, {"smiles": "CC[C@H](C)[C@H](NC(=O)N1CCC2(CC1)CN(CC(C)C)C2c1ccc(Cl)cc1)C(=O)OC", "note": "(stereo partly shown)", "IC50": 26}, {"smiles": "COC(=O)[C@@H](NC(=O)N1CCC2(CC1)CN(CC(C)C)C2c1ccc(Cl)cc1)C(C)C", "note": "(stereo partly shown)", "IC50": 32}, {"smiles": "COC(=O)[C@H](CC(C)C)NC(=O)N1CCC2(CC1)CN(C(C)C)C2c1ccc(Cl)cc1", "note": "(stereo partly shown)", "IC50": 65}, {"smiles": "CC[C@H](C)[C@H](NC(=O)N1CCC2(CC1)CN(c1ccc(F)cc1)C2c1ccc(Cl)cc1)C(=O)OC", "note": "(stereo partly shown)", "IC50": 77}, {"smiles": "O=C(C1CCCCC1)N1CCC2(CC1)CN(C(=O)C1(c3ccc(Cl)cc3)CCCC1)C2c1ccccc1", "note": "(stereo not shown)", "IC50": 376}, {"smiles": "CC(C)N1CC2(CCN(C(=O)Nc3cc(F)cc(F)c3)CC2)C1c1ccc(Cl)cc1", "note": "(single isomer, unassigned)", "IC50": 32}, {"smiles": "CC(C)N1CC2(CCN(C(=O)Nc3ccc(F)cc3)CC2)C1c1ccc(Cl)cc1", "note": "(single isomer, unassigned)", "IC50": 69}]}, {"target": "T2, human-SP9215 (GPR119) (Homo sapiens, UniProt Q8TDV5)", "T2 construct": "expressed in transfected cells", "T2 sequence (Q8TDV5 1-335)": "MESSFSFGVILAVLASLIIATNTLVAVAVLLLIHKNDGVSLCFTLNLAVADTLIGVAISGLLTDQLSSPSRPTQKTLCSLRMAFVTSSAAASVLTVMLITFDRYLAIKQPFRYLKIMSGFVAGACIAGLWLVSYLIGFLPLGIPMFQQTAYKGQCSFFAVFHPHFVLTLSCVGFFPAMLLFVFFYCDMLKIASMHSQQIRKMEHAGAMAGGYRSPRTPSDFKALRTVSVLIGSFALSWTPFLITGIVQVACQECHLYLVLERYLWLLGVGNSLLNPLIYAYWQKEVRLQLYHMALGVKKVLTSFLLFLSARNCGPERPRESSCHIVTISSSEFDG", "assay": "GPR119 screening assay (LANCE cAMP)", "format": "cell-based", "conditions": "HEK 293 cells stably transfected with human GPR119, read-out: GPR 119 cAMP IC50", "method": "• +100 mg BSA (MP Biomedicals faction V, #103703)=0.1% • +500 ul 1M HEPES (Cellgro #25-060-CI)=5 mM • +75 ul RO-20 (Sigma B8279; 20 mM stock in DMSO stored in aliquots at −20 C)=15 uM • (made fresh daily) B84 (N-[4-(methylsulfonyl)phenyl]-5-nitro-6-[4-(phenylthio)-1-piperidinyl]-4-pyrimidinamine, see WO 2004/065380). A 10 mM stock solution of the test compound in DMSO was prepared, aliquoted and stored at −20 C. For Totals—Dilute 1:33.3 in DMSO then 1:50 in Stimulation Buffer=6 uM in 2% DMSO (=3 uM B84 and 1% DMSO final). For Dose Response Curve—3 ul stock+7 ul DMSO+490 ul Stim Buffer=60 uM in 2% DMSO (=30 uM B84 and 1% DMSO final). (made fresh daily). Cell Line: Human clone 3. HEK 293 cells stable transfected with human-SP9215 (GPR119)/pcDNA3.1 and also stable for pCRELuc, Stratagene. Cells are maintained in DMEM containing 10% FBS (invitrogen #02-4006Dk, lot #1272302, heat inactivated), 1×MEM, 1× Pen/Strep, 0.1 mg/ml Hygromycin 6, and […] G418. Cells are split 1:8 twice per week. cAMP Kit: LANCE™ cAMP 384 kit, Perkin Elmer #AD0263 Compound Dilutions: • Add DMSO to vials containing compounds to yield a 1 mg/ml solution. • 1. Dilute compounds to 60 μM in Stimulation buffer. Make ½ log dilutions into Stimulation buffer containing 2% DMSO using the epMotion robot. 10 point dose response curve 1 nM to 30 uM. • 2. Compounds are run in quadruplicate, 2 separate dilutions for each, sets 1 and 1a. Assay Procedure: • 1. The afternoon before the assay, replace the media in the flask of Human clone 3 cells with Optimem. (Gibco #11058-021) NOTE: cells should be in culture 6-8 days. • 2. Next morning, pipette the cells gently off the flask using HBSS (RT). • 3. Pellet the cells (1300 rpm, 7 min, RT) and resuspend in Stimulation Buffer at […] (=5-8,000 cell/6 ul). Add 1:100 dilution of Alexa Fluor 647-anti cAMP antibody (provided in the kit) directly to the cell suspension. • 4. Into white 384-well plates (Matrix) add 6 ul of 2× B84, cmpds or stim buffer for nsb. They all contain 2% DMSO (=1% DMSO final). • 5. Add 6 ul of the cell suspension to the wells. Incubate 30 minutes RT. • 6. For the std curve add 6 ul cAMP std solution diluted in Stim Buffer+2% DMSO according to kit directions (1000-3 nM). Add 6 ul of 1:100 anti-cAMP dilution in Stim Buffer to std wells. • 7. Make Detection Mix according to kit instructions and incubate 15 min RT. • 8. Add 12 ul Detection Mix to all the wells. Mix gently by tapping and incubate 2-3 hrs RT. • 9. Read on the Envision under the protocol “Lance/Delphia cAMP” • 10. Values (nM) for each sample are determined by extrapolation from the std curve. % Control, Fold and EC50 (Control=3 uM B84) are determined for each compound, averaging sets 1 and 1a. Results", "units": {"IC50": "nM"}, "values": [{"smiles": "O=C(c1ccc2c(c1)OCCCO2)N1CCC2(CC1)CN(c1ccc(F)cc1)C2c1ccc(Cl)cc1", "note": "(stereo not shown)", "IC50": 1640}, {"smiles": "CC(C)CN1CC2(CCN(C(=O)c3ccc4c(c3)OCCCO4)CC2)C1c1ccccc1", "note": "(stereo not shown)", "IC50": 1920}, {"smiles": "CC(C)CN1CC2(CCN(C(=O)c3ccc4c(c3)OCCCO4)CC2)C1c1ccc(Cl)cc1", "note": "(stereo not shown)", "IC50": 2620}, {"smiles": "O=C(c1ccc2c(c1)OCCCO2)N1CCC2(CC1)CN(Cc1ccccc1Cl)C2c1ccc(Cl)cc1", "note": "(stereo not shown)", "IC50": 2770}, {"smiles": "O=C(c1ccc2[nH]cnc2c1)N1CCC2(CC1)CN(Cc1ccccc1Cl)C2c1ccccc1", "note": "(stereo not shown)", "IC50": 2980}]}]}
